{"source": "patent US20240358692A1", "about": "“TREATMENT OF SCLERODERMA” (Aisa Pharma, Inc., priority 2023, published 2024)", "key": {"[1]": {"tested_on": "participants with SSc-RP", "assay": "SHAQ - Alternative Disability Index", "type": "in vivo, human", "source_text": "The SHAQ is used to calculate a Disability Index to assess the participant qualify of life. The eight categories assessed by the Disability Index are 1) dressing and grooming, 2) arising, 3) eating, 4) walking, 5) hygiene, 6) reach, 7) grip, and 8) common daily activities. For each of these categories, patients report the amount of difficulty they have in performing two or three specific activities.\nThere are four possible responses for the Disability Index questions: • Without any difficulty=0 • With some difficulty=1 • With much difficulty=2 • Unable to do=3 • The highest score reported by the patient for any component question of the eight categories determines the score for that category. • If a component question is left blank or the response is too ambiguous to assign a score, then the score for that category is determined by the remaining completed question(s). • If all component questions are blank or if more than one answer is given, then follow up with the respondent is required. • If the respondent's mark is between the response columns, then move it to the closest one. If it's directly between the two, move it to the higher one.\nThe aid and device variables are not used to calculate the alternative disability index; it is calculated by adding the scores for each of the categories and dividing by the number of categories answered. This gives a score in the 0 to 3 range."}, "[2]": {"tested_on": "participants with SSc-RP", "assay": "SHAQ - Visual Analog Scale - Finger Ulcers", "type": "in vivo, human", "source_text": "The standard, validated, patient reported outcome measures tool for SSc patients, the Scleroderma Health Assessment Questionnaire (SHAQ), will be used to assess the participant qualify of life. Details are attached in the Appendix. The participant quality of life will be scored, and a disability index calculated for each questionnaire completed by the patient at Screening and each in-clinic visit. The absolute change in participant quality of life from baseline to the end of each dosing period will be calculated similar to frequency data as before.\nThe standard, validated, patient reported outcome measures tool for SSc patients, the SHAQ, was collected at the time points specified in the study schedules (FIG. 2 and FIGS. 4A and 4B) to assess the participant's quality of life. The SHAQ included a Raynaud's VAS that will also be reported separately."}, "[3]": {"details": "Modified ITT Population-Part A, Day 12, dose cilnidipine 10 mg, tadalafil 5 mg, alone or combined as labelled"}, "[4]": {"details": "Modified ITT Population-Part A, dose cilnidipine 10 mg, tadalafil 5 mg, alone or combined as labelled"}, "[5]": {"details": "Tadalafil 5 mg, SSc patients, PP, Part A"}, "[6]": {"details": "Tadalafil 5 mg (N = 5), Day 12, PP Population, Part A"}}}
{"smiles": "CN1CC(=O)N2[C@H](c3ccc4c(c3)OCO4)c3[nH]c4ccccc4c3C[C@@H]2C1=O", "note": "[Tadalafil]", "values": [{"measurement": "alternative disability index, Change from Baseline, Mean", "setting": "[1]; [3]", "value": "−0.094"}, {"measurement": "alternative disability index, Change from Baseline, Median", "setting": "[1]; [3]", "value": "−0.125"}, {"measurement": "alternative disability index, Percent Change from Baseline, Mean", "setting": "[1]; [3]", "value": "−43.70", "unit": "%"}, {"measurement": "alternative disability index, Percent Change from Baseline, Median", "setting": "[1]; [3]", "value": "−20.00", "unit": "%"}, {"measurement": "alternative disability index, In Clinic Visit (Day 12), Mean", "setting": "[1]; [4]", "value": 0.375}, {"measurement": "alternative disability index, In Clinic Visit (Day 12), Median", "setting": "[1]; [4]", "value": 0.250}, {"measurement": "SHAQ Alternative Disability Index, Change from Baseline, Max", "setting": "[1]; [5]", "value": 0.00}, {"measurement": "SHAQ Alternative Disability Index, Change from Baseline, Mean", "setting": "[1]; [5]", "value": "−0.094"}, {"measurement": "SHAQ Alternative Disability Index, Change from Baseline, Median", "setting": "[1]; [5]", "value": "−0.125"}, {"measurement": "SHAQ Alternative Disability Index, Change from Baseline, Min", "setting": "[1]; [5]", "value": "−0.13,"}, {"measurement": "SHAQ Alternative Disability Index, Change from Baseline, Q3", "setting": "[1]; [5]", "value": "−0.063"}, {"measurement": "SHAQ Alternative Disability Index, Day 12, Max", "setting": "[1]; [5]", "value": 1.00}, {"measurement": "SHAQ Alternative Disability Index, Day 12, Mean", "setting": "[1]; [5]", "value": 0.375}, {"measurement": "SHAQ Alternative Disability Index, Day 12, Median", "setting": "[1]; [5]", "value": 0.250}, {"measurement": "SHAQ Alternative Disability Index, Day 12, Min", "setting": "[1]; [5]", "value": "0.00,"}, {"measurement": "SHAQ Alternative Disability Index, Day 12, Q1", "setting": "[1]; [5]", "value": "0.000,"}, {"measurement": "SHAQ Alternative Disability Index, Day 12, Q3", "setting": "[1]; [5]", "value": 0.750}, {"measurement": "SHAQ Alternative Disability Index, Percent Change from Baseline, Max", "setting": "[1]; [5]", "value": "−11.1"}, {"measurement": "SHAQ Alternative Disability Index, Percent Change from Baseline, Mean", "setting": "[1]; [5]", "value": "−43.70"}, {"measurement": "SHAQ Alternative Disability Index, Percent Change from Baseline, Median", "setting": "[1]; [5]", "value": "−20.00"}, {"measurement": "SHAQ Alternative Disability Index, Percent Change from Baseline, Min", "setting": "[1]; [5]", "value": "−100.0,"}, {"measurement": "SHAQ Alternative Disability Index, Percent Change from Baseline, Q1", "setting": "[1]; [5]", "value": "−100.00,"}, {"measurement": "SHAQ Alternative Disability Index, Percent Change from Baseline, Q3", "setting": "[1]; [5]", "value": "−11.11"}, {"measurement": "SHAQ Visual Analogue Scale - Finger Ulcers, Change from Baseline, Mean", "setting": "[2]; [6]", "value": 0.250}, {"measurement": "SHAQ Visual Analogue Scale - Finger Ulcers, Change from Baseline, Median", "setting": "[2]; [6]", "value": 0.000}, {"measurement": "SHAQ Visual Analogue Scale - Finger Ulcers, Percent Change from Baseline, Mean", "setting": "[2]; [6]", "value": 6.10, "unit": "%"}, {"measurement": "SHAQ Visual Analogue Scale - Finger Ulcers, Percent Change from Baseline, Median", "setting": "[2]; [6]", "value": 6.10, "unit": "%"}, {"measurement": "VAS Finger Ulcers Change from Baseline Max", "setting": "[2]; tadalafil 5 mg", "value": 1.00}, {"measurement": "VAS Finger Ulcers Change from Baseline Mean", "setting": "[2]; tadalafil 5 mg", "value": 0.250}, {"measurement": "VAS Finger Ulcers Change from Baseline Median", "setting": "[2]; tadalafil 5 mg", "value": 0.000}, {"measurement": "VAS Finger Ulcers Change from Baseline Min", "setting": "[2]; tadalafil 5 mg", "value": 0.00}, {"measurement": "VAS Finger Ulcers Change from Baseline Q1", "setting": "[2]; tadalafil 5 mg", "value": 0.000}, {"measurement": "VAS Finger Ulcers Change from Baseline Q3", "setting": "[2]; tadalafil 5 mg", "value": 0.500}, {"measurement": "VAS Finger Ulcers Day 12 Max", "setting": "[2]; tadalafil 5 mg", "value": 9.20}, {"measurement": "VAS Finger Ulcers Day 12 Median", "setting": "[2]; tadalafil 5 mg", "value": 0.050}, {"measurement": "VAS Finger Ulcers Day 12 Min", "setting": "[2]; tadalafil 5 mg", "value": 0.00}, {"measurement": "VAS Finger Ulcers Day 12 Q1", "setting": "[2]; tadalafil 5 mg", "value": 0.000}, {"measurement": "VAS Finger Ulcers Day 12 Q3", "setting": "[2]; tadalafil 5 mg", "value": 4.650}, {"measurement": "VAS Finger Ulcers Percent Change from Baseline Max", "setting": "[2]; tadalafil 5 mg", "value": 12.2, "unit": "%"}, {"measurement": "VAS Finger Ulcers Percent Change from Baseline Mean", "setting": "[2]; tadalafil 5 mg", "value": 6.10, "unit": "%"}, {"measurement": "VAS Finger Ulcers Percent Change from Baseline Median", "setting": "[2]; tadalafil 5 mg", "value": 6.10, "unit": "%"}, {"measurement": "VAS Finger Ulcers Percent Change from Baseline Min", "setting": "[2]; tadalafil 5 mg", "value": 0.0, "unit": "%"}, {"measurement": "VAS Finger Ulcers Percent Change from Baseline Q1", "setting": "[2]; tadalafil 5 mg", "value": 0.00, "unit": "%"}, {"measurement": "VAS Finger Ulcers Percent Change from Baseline Q3", "setting": "[2]; tadalafil 5 mg", "value": 12.20, "unit": "%"}]}
